This passage reports IC50 and Ki results from BindingDB's records for doi:10.3109/14756366.2011.639016 (Gazi University, 2013).

In assay [1] the target is Carbonic anhydrase 1 (Homo sapiens, UniProt P00915). The experiment in a line: Esterase Activity Assay. The note with it: pH 7.4. The protocol:
(§1) The enzymatic reaction contained 1.4 mL 0.05 M Tris-SO4 buffer(pH 7.4), 1 mL 3 mM 4-nitrophenylacetate, 0.5 mL H2O and 0.1 mL enzyme solution (total volume, 3.0 mL). A reference measurement was obtained by preparing themixture without the enzyme solution. All measurements were made in triplicate.

For assay [2], the target named is Carbonic anhydrase 2 (Homo sapiens, UniProt P00918). The experiment in a line: Esterase Activity Assay. Conditions: pH 7.4. The procedure: as §1

The structures appear in SMILES notation.

Chain of Carbonic anhydrase 1 (P00915 whole entry): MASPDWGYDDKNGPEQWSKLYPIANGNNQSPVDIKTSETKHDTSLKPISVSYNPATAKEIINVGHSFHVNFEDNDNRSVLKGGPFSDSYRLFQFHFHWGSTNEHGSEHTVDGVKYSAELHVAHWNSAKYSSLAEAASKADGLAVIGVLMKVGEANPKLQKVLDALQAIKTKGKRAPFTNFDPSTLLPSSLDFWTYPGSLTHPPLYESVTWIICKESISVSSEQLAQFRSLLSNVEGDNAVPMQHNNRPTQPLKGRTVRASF

Broadly, the IC50 is the concentration needed to halve the response being measured. A low value points to greater potency. What is called Ki is a measure of affinity in units of concentration, obtained from inhibition or displacement. A lower Ki goes with higher affinity. As for `Cc1ccc(-c2c(C#N)c(N)nc3c2CCCC3)s1` [2-azanyl-4-(5-methylthiophen-2-yl)-5,6,7,8-tetrahydroquinoline-3-carbonitrile], in assay [1], inhibition was half-maximal at 34 µM (IC50) and the Ki was determined as 31 µM. For the same compound, in assay [2], half-maximal inhibition (IC50) was put at 99 µM and the Ki turned out to be 182 µM.
Take `Cc1ccc(-c2c(C#N)c(N)nc3c2CCCCC3)s1` [CA inhibitor, 5c]: in assay [1], the midpoint of inhibition, the IC50, lay at 40 µM and the affinity corresponds to a Ki of 30.6 µM. In addition, in assay [2], inhibition was half-maximal at 77 µM (IC50) and the inhibition constant Ki worked out at 73 µM.
In assay [1], `Cc1ccc(-c2c(C#N)c(N)nc3c2CCC3)o1` [CA inhibitor, 5d] came in with an IC50 of 33 µM and a Ki of 23.8 µM. In addition, in assay [2], the IC50 turned out to be 56 µM and the Ki was 41 µM.
In assay [1], `Cc1ccc(-c2c(C#N)c(N)nc3c2CCCC3)o1` [CA inhibitor, 5e] had an IC50 of 48 µM and a Ki of 89 µM.
For `Cc1ccc(-c2c(C#N)c(N)nc3c2CCCCC3)o1` [CA inhibitor, 5f], in assay [1], the IC50 is 53 µM and the Ki was 58.5 µM.
The like results for `Cc1ccc(-c2c(C#N)c(N)nc3c2CCSC3)s1` [CA inhibitor, 5i] were, in that order, 55 µM and 38.4 µM.
On the same counts, the results for `Cc1ccc(-c2c(C#N)c(N)nc3c2CCSC3)o1` [CA inhibitor, 5l] are 53 µM and 50.3 µM.
